According to patent US12312327B2, “Crystal of 1,3,5-triazine derivative or solvate thereof and method for producing same” (Shionogi & Co., Ltd., priority 2019, dated 2025):

Experiments:
[1] = Flowability test (Compressibility index and Hausner ratio); assay type: physicochemical; conditions: for Compressibility index (%): (V0−Vf)/V0×100; for Hausner ratio: V0/Vf; for V0 (mL), loose bulk volume: about 10 g sample in 50 mL measuring cylinder, no compaction; for V0 (mL), loose bulk volume / Vf (mL), final tap volume: average of three; for Vf (mL), final tap volume: about 10 g sample, tapped until volume difference <= 0.5 mL
Procedure: 1) About 10 g of a sample was gently put into a 50 mL measuring cylinder, and the sample amount was measured.
2) The upper surface of the powder layer was carefully leveled without compaction, and the loose bulk volume (V0) was read.
3) The measuring cylinder was mounted on a support stand of a powder tester (PT-X type, Hosokawa Micron Corporation).
4) The powder sample was tapped 10 times, 500 times, 1250 times, 2500 times and the corresponding bulk volumes (V10, V500, V1250, V2500) were read.
5) The process was ended when the volume difference was equal to or less than the minimum scale (0.5 mL), and the final bulk volume was defined as the final tap volume (Vf).
6) The steps 1) to 5) were repeated three times and measured, and the average values were adopted for calculation of the Compressibility index and the Hausner ratio.
Compressibility index=(V0−Vf)/V0×100 Hausner ratio=V0/Vf

[2] = Solid stability test (80° C. hermetically sealed, one week, HPLC Method D); assay type: physicochemical; conditions: for Residual ratio (%): sealed storage, content by HPLC; for Types of analogous substances generated: 80° C. hermetically sealed, one week
Procedure: Column: Cadenza CD-C18, φ 3.0×150 mm, 3 μm
Flow rate: 0.55 mL per minute
UV detection wavelength: 262 nm
Mobile phase A: 0.1% TFA aqueous solution
Mobile phase B: Acetonitrile
5 mg sample (n=4) was precisely weighed in 2 mL vial, capped, and stored at a predetermined temperature (sealed storage). Then, each sample was taken out after storage for a predetermined period, and stability (content) was evaluated.
80° C. hermetically sealed
Each vial was washed out into a 25 mL volumetric flask.
Diluting medium: acetonitrile/water=1/1

Structure (SMILES): C[C@@H](Cn1c(=O)[nH]/c(=N\c2ccc(Oc3ccccn3)cc2)n(Cc2ccc(Cl)cc2)c1=O)C(=O)O [Anhydrous crystal Form I of compound represented by Formula ]
- Compressibility index (%) [1]: 25.4%
- Hausner ratio [1]: 1.3
- V0 (mL), loose bulk volume [1]: 19.0 mL
- Vf (mL), final tap volume [1]: 14.2 mL
- Flowability compared with the other crystal forms ([1]; from Compressibility index, Table 15): better flowability as compared with the other two crystal forms
- Peak area (%) of analogous substance, retention time 15.5 min ([2]; 80° C. 1W): 0.16%
- Peak area (%) of analogous substance, retention time 17.1 min ([2]; 80° C. 1W): 0.04%
- Peak area (%) of analogous substance, retention time 20.6 min ([2]; 80° C. 1W): 0.03%
- Purity (%) ([2]; 80° C. 1W): 99.77%
- Residual ratio (%) ([2]; 80° C. 1W): 99.79%
- Types of analogous substances generated [2]: three types
- Peak area (%) of analogous substance, retention time 15.5 min ([2]; Initial): 0.16%
- Peak area (%) of analogous substance, retention time 17.1 min ([2]; Initial): 0.05%
- Peak area (%) of analogous substance, retention time 20.6 min ([2]; Initial): 0.03%
- Purity (%) ([2]; Initial): 99.76%

Structure (SMILES): C[C@@H](Cn1c(=O)[nH]/c(=N\c2ccc(Oc3ccccn3)cc2)n(Cc2ccc(Cl)cc2)c1=O)C(=O)O [Dihydrate crystal of compound represented by Formula (I)]
- Compressibility index (%) [1]: 35.9%
- Hausner ratio [1]: 1.6
- V0 (mL), loose bulk volume [1]: 30.7 mL
- Vf (mL), final tap volume [1]: 19.7 mL
- Peak area (%) of analogous substance, retention time 3 min ([2]; 80° C. 1W): 0.05%
- Peak area (%) of analogous substance, retention time 15.5 min ([2]; 80° C. 1W): 0.09%
- Purity (%) ([2]; 80° C. 1W): 99.86%
- Residual ratio (%) ([2]; 80° C. 1W): 99.13%
- Types of analogous substances generated [2]: two types
- Peak area (%) of analogous substance, retention time 15.5 min ([2]; Initial): 0.09%
- Purity (%) ([2]; Initial): 99.91%

Structure (SMILES): C[C@@H](Cn1c(=O)[nH]/c(=N\c2ccc(Oc3ccccn3)cc2)n(Cc2ccc(Cl)cc2)c1=O)C(=O)O [Ethyl acetate/hexane solvate crystal of compound represented] [reference compound]
- Compressibility index (%) [1]: 36.7%
- Hausner ratio [1]: 1.6
- V0 (mL), loose bulk volume [1]: 36.8 mL
- Vf (mL), final tap volume [1]: 23.3 mL
- Peak area (%) of analogous substance, retention time 3 min ([2]; 80° C. 1W): 0.06%
- Peak area (%) of analogous substance, retention time 5.8 min ([2]; 80° C. 1W): 0.01%
- Peak area (%) of analogous substance, retention time 10.5 min ([2]; 80° C. 1W): 0.14%
- Peak area (%) of analogous substance, retention time 14 min ([2]; 80° C. 1W): 0.04%
- Peak area (%) of analogous substance, retention time 16.9 min ([2]; 80° C. 1W): 0.03%
- Purity (%) ([2]; 80° C. 1W): 99.71%
- Residual ratio (%) ([2]; 80° C. 1W): 99.03%
- Types of analogous substances generated [2]: five types
- Peak area (%) of analogous substance, retention time 3 min ([2]; Initial): 0.06%
- Peak area (%) of analogous substance, retention time 5.8 min ([2]; Initial): 0.01%
- Peak area (%) of analogous substance, retention time 10.5 min ([2]; Initial): 0.15%
- Peak area (%) of analogous substance, retention time 14 min ([2]; Initial): 0.04%
- Peak area (%) of analogous substance, retention time 16.9 min ([2]; Initial): 0.04%
- Purity (%) ([2]; Initial): 99.71%
